Data on one sequence can be found in US20100331233A1, “CRYSTAL OF XPA AND ERCC1 COMPLEX AND USES THEREOF” (priority 2007, published 2010).

For this test, the target named is T1, central domain of ERCC1 (ERCC196-214) (Homo sapiens, UniProt P07992).
T1 construct: His6 (N); made in house; host or cells: E. coli BL21(DE3)
T1 sequence (P07992 96-214): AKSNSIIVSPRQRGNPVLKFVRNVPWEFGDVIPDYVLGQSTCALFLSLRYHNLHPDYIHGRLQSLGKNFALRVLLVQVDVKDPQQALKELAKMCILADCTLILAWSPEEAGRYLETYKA
The experiment in a line: Competitive binding equilibrium titrations, fluorescence anisotropy of 6FAM-labeled single-stranded 40mer DNA. The protocol: Binding of a 6FAM-labeled single-stranded DNA 40mer to the central domain of ERCC1 was monitored by fluorescence polarization of the labeled DNA. DNA binding activity is plotted as a function of added XPA67-80 inhibitor. The theoretical curve given by Eq. 9 (solid line) corresponds to the best fit of the data to the dissociation equilibrium constant of 300 nM for the ERCC1-XPA complex.
Competitive binding equilibrium titrations. The equilibrium titrations were performed in a binding buffer containing 20 mM Tris, pH 8.0, 20 mM NaCl, 2 mM betamercaptoethanol. The concentrations of single-stranded 5′ 6-FAM-labeled DNA (5′-CCGGTGGCCAGCGCTCGGCG(T)20; SEQ ID NO:9) and ERCC196-214 were 50 nM and 2.33 μM, respectively, the concentration of the XPA peptide was varied from 0 to 30 μM (FIG. 7). Fluorescence anisotropy measurements were performed as previously reported (Tsodikov et al., 2005). Increasing XPA peptide concentration above 30 μM caused an increase in fluorescence anisotropy and quenching of fluorescence due to nonspecific interactions with the peptide, observed in the presence or absence of ERCC1 (data not shown).
The simplest binding model used in the data analysis consisted of two competitive equilibria, binding of XPA peptide and of the single-stranded 6FAM-labeled 40-mer DNA to the central domain of ERCC1. This model is consistent with the fact that at sufficiently high XPA concentration, the fluorescence anisotropy signal approaches that of unbound DNA. Therefore the two binding equilibria could be written as:
where E, D, X represent the ERCC1, DNA and XPA species, respectively. ED and EX represent ERCC1-DNA and ERCC1-XPA complexes, and KDNA and KXPA are the observed equilibrium association constants, defined in terms of the equilibrium concentrations of the species from Eqs. (2a) and (2b) as:
The approximation made in Equation (4b) is due to the large excess of ERCC1 over DNA at the experimental conditions. It was assumed that each single-stranded 40-mer DNA oligonucleotide contains only one binding site for ERCC1. Because the central domain of ERCC1 occludes 10-15 nucleotides upon binding DNA (1), with a reasonable approximation, a maximum of 2-3 ERCC1 molecules could simultaneously bind to one DNA molecule without significant cooperativity. In this analysis, a value of (KDNA)−1=1.5 μM was used, obtained from the direct titration of ERCC1 at constant concentration (50 nM) of the same DNA oligomer, using the same single site approximation (1). Therefore the value of the equilibrium binding constant for XPA-ERCC1 complex formation, KXPA, should be unaffected by the stoichiometry of ERCC1-DNA binding.
The system of Eqs. 4a, 4b and 4c yields expressions for [E], [X] and [D], which are then used to determined the fraction of bound DNA species, f, as follows:
The observed fluorescence anisotropy, r, is then given by
where r0 and rmax are fluorescent anisotropy values of unbound and fully bound DNA, respectively. […]
XPA competes with single-stranded DNA for binding to ERCC1. Because XPA binds in the groove on ERCC1 (FIG. 2) that was previously implicated in DNA binding activity (Tsodikov et al., 2005), it was determined whether or not XPA competes with single-stranded DNA for binding to ERCC1. DNA binding activity was measured by monitoring fluorescence anisotropy, using single-stranded 40mer oligonucleotide labeled on the 5′ end with 6-carboxyfluorescein. […]
In general terms: Fluorescence polarisation rises when a labelled molecule tumbles more slowly, as on binding a larger partner.

Entries after “also recorded” stand apart in the source; their conditions may differ. No end group written: not given here.

For KIIDTGGGFILEEE [XPA67-80], the “affinity for central domain of ERCC1 relative to single stranded DNA” value was “approximately 3 fold”. The Kd (best fit of competition titration to Eq. 9, 50 nM DNA, 2.33 μM ERCC196-214, read-out: dissociation equilibrium constant (Kd) of the XPA-ERCC1 complex) was 300 nM. The “EC50 for binding of XPA67-80” value (competition with 6FAM single-stranded 40mer DNA, accurate measurement precluded by quenching) is on record as “in the micromolar range”. The “competition with single-stranded DNA for binding to ERCC1” value (fluorescence anisotropy / polarization) was “does compete with DNA for binding to ERCC1; also recorded: competitive inhibitor”. The “binding of peptide to DNA” value (single-stranded 40mer, fluorescence anisotropy) is on record as “does not detectably bind to DNA”.

Broadly, the Kd is the constant that tells how readily two partners part at equilibrium.
